Reference: patent publication US20260076982A1, “Prodrugs of Cannbidiol [CBD]-Type Phytocannabinoids and a Process for Preparation Thereof” (priority 2022, published 2026)

Key:
[1] = Ex vivo human plasma stability / release kinetic study of CBD prodrugs; assay type: in vitro ADME; details: human blood plasma with citrate buffer; for prodrug left after 24 h / concentration of cannabidiol (B1) released from prodrug after 24 h / concentration of cannabidiol (B1) at start of release: 37° C.; for concentration of cannabidiol (B1) released from prodrug after 24 h: HPLC; for concentration of cannabidiol (B1) at start of release: initial value of the release range; for stability / conversion of prodrug in plasma: over 24 h
Method: For the preparation of citrate buffer solution (pH=7.6), 100 ml of HPLC water, 0.25 M sucrose and 40 mM sodium citrate were taken.
To construct a calibration curve, […] different concentration such as 0.78, 1.56, 3.12, 6.25, 12.5, 25, 50 mg/ml of CBD based prodrugs and the parent cannabidiol were prepared. All sample were analyzed by 4.6×250 mm, 5 μm end capped RP-C18 column and the mobile phase containing buffer (0.1% formic acid in water and 0.1% formic acid in acetonitrile) and in some case methanol were used at the flow rate of 1 mL/min at column temperature of 25° C. at 210 nm, 190 nm, 254 nm wavelength range. A volume of 10 μL was injected and a total run time of the assay range was between 15-40 mins. The markers were estimated by HPLC using gradient technique.
For the preparation of plasma sample, fresh 20 ml of human blood was taken to which 2 ml of citrate buffer was added and then vortex it for about 5 minutes. Immediately after this, the mixture was centrifuged at 8000 rpm for 20 minutes, resulting in the separation of two-layer like RBC and plasma (ethical approval number 1EC/GMC/Cat A/2020/267).
To check the stability of prodrugs in plasma, stock solution of prodrug in DMSO (5 mg/2 ml) was prepared and placed at −20° C. The plasma sample of 50 μl was taken in different eppendorf's followed by the addition of 5 μl prodrug solution, vertex for 2 min., incubated at 37° C. at the different time point (Schedule provided in Table 1). After 24 h, all the sample were added with 200 μl MeOH with the help of vertex for about 2 minutes followed by centrifuge for about 10 minutes with 4000 rpm and two layers of sample were separated. The upper layer of methanol sample was taken and immediately the methanol sample was analyzed by 4.6×250 mm, 5 μm end capped RP-C18 column and the mobile phase containing buffer (0.1% formic acid in water and 0.1% formic acid in acetonitrile) and in some case methanol were used at the flow rate of 1 mL/min at column temperature of 25° C. at 210 nm, 190 nm, 254 nm wavelength range. A volume of 10 μL was injected and a total run time of the assay range was 15-40 mins. The markers were estimated by HPLC using gradient technique. The results are depicted in FIG. 1 to FIG. 10.

[2] = published studies; cited from earlier work

| Structure (SMILES) | prodrug left after 24 h [1] | concentration of prodrug at the initial time point (Pre-treatment) [1] [%] | stability / conversion of prodrug in plasma [1] | other results |
| --- | --- | --- | --- | --- |
| C=C(C)[C@@H]1CCC(C)=C[C@H]1c1c(O)cc(CCCCC)cc1OC(=O)CN1CCN(C(C)C)CC1 [Compound A6a, O-{2-(4-isopropylpiperazin-1-yl)acetyl} cannabidiol] | 11.1% | 51.3 | – | concentration of cannabidiol (B1) released from prodrug after 24 h [1]: 26.8%; concentration of cannabidiol (B1) at start of release [1]: 0.6% |
| C=C(C)[C@@H]1CCC(C)=C[C@H]1c1c(O)cc(CCCCC)cc1OC(=O)CN1CCN(c2ccccc2)CC1 [Compound A8a, O-{2-(4-phenylpiperazin-1-yl)acetyl} cannabidiol] | – | – | quite stable | – |
| C=C(C)[C@@H]1CCC(C)=C[C@H]1c1c(O)cc(CCCCC)cc1OC(=O)CN1CCC(c2ccccc2)CC1 [Compound A2a, O-{2-(4-phenylpiperidin-1-yl)acetyl} cannabidiol] | – | – | quite stable | – |
| C=C(C)[C@@H]1CCC(C)=C[C@H]1c1c(O)cc(CCCCC)cc1O [Compound B1, cannabidiol] | – | – | – | plasma protein binding [2]: > 94% |
| C=C(C)[C@@H]1CCC(C)=C[C@H]1c1c(O)cc(CCCCC)cc1OC(=O)CN1CCCC1 [Compound A10a, O-{2-(pyrrolidin-1-yl)acetyl} cannabidiol] | 1.9% | 51.3 | – | – |
| C=C(C)[C@@H]1CCC(C)=C[C@H]1c1c(O)cc(CCCCC)cc1OC(=O)CN1CCN(C)CC1 [Compound A7a, O-{2-(4-methylpiperazin-1-yl)acetyl} cannabidiol] | 0.7% | 49.6 | – | – |
| C=C(C)[C@@H]1CCC(C)=C[C@H]1c1c(OC(=O)CN2CCOCC2)cc(CCCCC)cc1OC(=O)CN1CCOCC1 [Compound A1b, O,O-bis-(2-morpholinoacetyl) cannabidiol] | – | – | immediately converted into mono substituted CBD derivative | – |
| C=C(C)[C@@H]1CCC(C)=C[C@H]1c1c(O)cc(CCCCC)cc1OC(=O)CN1CCC(O)CC1 [Compound A3a, O-{2-(4-hydroxypiperidin-1-yl)acetyl} cannabidiol] | below detection limit | 49.2 | – | – |
| C=C(C)[C@@H]1CCC(C)=C[C@H]1c1c(OC(=O)CN2CCN(C3CC3)CC2)cc(CCCCC)cc1OC(=O)CN1CCN(C2CC2)CC1 [Compound A5b, O,O-bis-{2-(4-cyclopropylpiperazin-1-yl)acetyl} cannabidiol] | – | – | immediately converted into mono substituted CBD derivative | time after which release of CBD (B1) started [1]: > 16 h; concentration of cannabidiol (B1) released from prodrug after 24 h [1]: 8.8% |
| C=C(C)[C@@H]1CCC(C)=C[C@H]1c1c(O)cc(CCCCC)cc1OC(=O)CN1CCN(C2CC2)CC1 [Compound A5a, O-{2-(4-cyclopropylpiperazin-1-yl)acetyl} cannabidiol] | 11.1% | 51.4 | – | concentration of cannabidiol (B1) released from prodrug after 24 h [1]: 17.4%; concentration of cannabidiol (B1) at start of release [1]: 0% |
| C=C(C)[C@@H]1CCC(C)=C[C@H]1c1c(O)cc(CCCCC)cc1OC(=O)CN1CCOCC1 [Compound A1a, O-(2-morpholinoacetyl) cannabidiol] | 5.5% | 49.1 | – | – |
